The text below walks through data of EP0423133B1, “ENZYMATIC RESOLUTION SYSTEMS AND COMPOUNDS USEFUL IN THE SYSTEMS AND THEIR REPARATIONS” (priority 1988, dated 1989).

What is called solubility is the concentration that dissolves in the medium under given conditions.

One data set deals with intact microorganism. The note with it: 400 mg dried cells, 160 mg (±)-substrate; Iriuchijima and Keiyu 1981; cited from earlier work.
Data set [1] has as its system Candida lipase (Genzyme Corporation). Description: Asymmetric hydrolysis in a multiphase membrane bioreactor with enzyme G. Type of data set: biochemical, Candida cylindracea. The note with it: first 45 minutes; 0.75M ester in MIBK, 3.0 grams lipase in membrane, pH 8.50. An excerpt:
The module was then drained.
This material was recrystallized from hexane.

Data set [2] is described as follows: Solubility by absorbance of saturated solutions at 262 nm. The class given is physicochemical.
The subject of data set [3] is Candida lipase (Sigma L 1754). Description: Asymmetric hydrolysis in a multiphase membrane bioreactor with enzyme H. The note with it: for rate of ester hydrolysis: pH 7.0.
Experimental: The enzyme solution was recirculated from the shell side to the lumen side and back to the solution reservoir in an ultra-filtration mode. […] The procedure was completed in one hour.
After loading the enzyme to the reactor, recirculation of 210 gm. […] The recirculation rate was 400 ml/min and the average pressure on the shell compartment was kept at 45,5 KPa (6.5 psi) by adjusting a throttling valve at the shell side exit. On the lumen side 1 liter of 0.05 M K2 PO4 was recirculated at a rate of 400 ml/min. The pH of the aqueous reservoir was kept at 7.0 by addition of 1 M NaOH. The reactor was run continuously for 6.8 days.
The reaction progress and rate were monitored by following the caustic consumption.
In the next data set the test system is Protease XXIII. The data set can be described thus: Rate of hydrolysis of single enantiomers by pH stat, enzyme A. The note with it: for Rate: 50 mM single enantiomer, 50 mM buffer pH 7.6, enzyme A. The class given is biochemical, Aspergillus oryzae. How it is done:
(§1) 15 ml of a solution containing one enantiomer of the ester at a concentration of 50 mM, and Na3PO4 buffer at 50 mM and pH 7.6 was observed using a pH stat device. 0.1 ml of a 50 mg/ml solution of enzyme A, made up from the commercially available preparation in 50 mM Na3 P04 buffer at pH 7.6, were added. Rates of hydrolysis of both enantiomers of the ester compound were determined for the enzyme. The ratio of the rates of hydrolysis for the two enantiomers for the two enantiomers with respect to the enzyme indicate the stereospecificity of that enzyme's hydrolytic action on the racemic mixture of the ester. No evidence for the hydrolysis of the acetylthio ester portion of the substrate molecule was found.

Data set [4] deals with T1, Protease VIII: "Subtilopeptidase A" (Bacillus licheniformis, UniProt P00780).
T1 sequence (P00780 106-379): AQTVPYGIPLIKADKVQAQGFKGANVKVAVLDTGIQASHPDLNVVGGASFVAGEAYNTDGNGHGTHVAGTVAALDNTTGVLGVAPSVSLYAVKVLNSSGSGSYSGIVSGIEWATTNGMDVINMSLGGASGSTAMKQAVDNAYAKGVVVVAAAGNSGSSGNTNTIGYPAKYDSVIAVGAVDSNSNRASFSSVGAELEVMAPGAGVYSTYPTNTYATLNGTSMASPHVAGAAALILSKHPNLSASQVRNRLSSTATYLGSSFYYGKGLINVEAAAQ
The data set can be described thus: Rate of hydrolysis of single enantiomers by pH stat, enzyme B. Type of data set: biochemical. The note with it: for Rate: 50 mM single enantiomer, 50 mM buffer pH 7.6, enzyme B. How it is done:
as §1, with “B,” for “A,”

Data set [5] has as its system Protease XXIV: bacterial protease. The data set can be described thus: Rate of hydrolysis of single enantiomers by pH stat, enzyme J. The class given is biochemical. The note with it: for Rate: 50 mM single enantiomer, 50 mM buffer pH 7.6, Example 6.2.3.4 (Enzyme J in text, (H) in table). How it is done:
as §1, with “Enzyme J,” for “enzyme A,”, “Na3PO4” for “Na3 P04”

Data set [6] concerns the target T2, Protease XXVII: "Nagarse" (Bacillus amyloliquefaciens, UniProt P00782).
T2 sequence (P00782 108-382): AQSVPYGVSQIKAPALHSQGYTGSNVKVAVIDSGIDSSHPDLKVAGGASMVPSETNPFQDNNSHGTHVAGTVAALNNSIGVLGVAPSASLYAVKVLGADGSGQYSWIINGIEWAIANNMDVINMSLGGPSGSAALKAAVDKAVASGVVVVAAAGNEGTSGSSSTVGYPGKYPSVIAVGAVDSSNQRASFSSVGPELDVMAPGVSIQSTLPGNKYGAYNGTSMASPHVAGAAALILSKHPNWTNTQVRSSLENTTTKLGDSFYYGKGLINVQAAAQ
The data set can be described thus: Rate of hydrolysis of single enantiomers by pH stat, enzyme D. Type of data set: biochemical. The note with it: for Rate: 50 mM single enantiomer, 50 mM buffer pH 7.6, enzyme D. How it is done:
as §1, with “D,” for “A,”, “thioacetyl” for “acetylthio”

In a further data set the test system is Protease XIV. The data set can be described thus: Rate of hydrolysis of single enantiomers by pH stat, enzyme I. The note with it: for Rate: 50 mM single enantiomer, 50 mM buffer pH 7.6, Example 6.2.3.2 (enzyme I in text, (G) in table). The class given is biochemical, Streptomyces griseus. How it is done:
as §1, with “solution of protease enzyme I,” for “solution of enzyme A,”, “protease enzyme I, made up” for “of enzyme A, made up”, “50 mM Na3PO4 buffer at” for “50 mM Na3 P04 buffer at”, “for the protease enzyme. The” for “for the enzyme. The”, “ester. No” for “ester. No evidence for the hydrolysis of the acetylthio ester portion of the substrate molecule was found.”
evidence for the hydrolysis of the acetylthio ester portion of the substrate molecule was found.

Structures are written as SMILES. ≈ marks a conversion by molar mass, not a printed value. Counter-ions that a name gives are not always drawn. Like-named read-outs stand apart in the source and are kept apart here.

For `COC(=O)C(C)c1ccc2cc(OC)ccc2c1` (racemic) [Compound 18, Methyl Ester of 2-(6-Methoxy-2-naphthyl)propanoic Acid], in the data set with intact microorganism, the substrate converted was 16.3%. The average rate in data set [1] is given as 35 amol/hr.

In the case of `CCCCCCCCOC(=O)C(C)Cl` (racemic) [Compound 20, Octyl Ester of 2-Chloropropanoic Acid], the solubility is 1200 µM (≈ 265 µg/mL) in data set [2] (aqueous buffer, saturated solutions, pH 7 (50 mM phosphate buffer), room temperature, read-out: Solubility) and roughly 1200 µM (≈ 265 µg/mL) in data set [2] (water, as stated in the text of the examples, read-out: water solubility). Also, the “rate of ester hydrolysis” value in [3] (at the beginning of the experiment, 210 gm neat ester, 30 grams Candida lipase in membrane) is 186 µmol/min; in data set [3] (at the end of the experiment (6.8 days)) it was 25 µmol/min. This compound had an initial ester hydrolyzed in data set [3] (when the experiment was terminated (6.8 days)) of 41%.

For the compound `CC(=O)SC[C@@H](C)C(=O)OCS(=O)(=O)O` [Compound 14, Potassium Salt of the Sulfomethyl Ester of D-(-)-S-3-Acetylthio-2-methylpropanoic Acid], the Rate with Protease XXIII is on record as 5.3 umols/hr/mg; in data set [4], 65 umols/hr/mg; in data set [5], 61 umols/hr/mg; in data set [6] it was 27 umols/hr/mg; with Protease XIV, 63 umols/hr/mg.

Turning to `CC(=O)SC[C@H](C)C(=O)OCS(=O)(=O)O` [Compound 15, Potassium Salt of the Sulfomethyl Ester of L-(+)-S-3-Acetylthio-2-methylpropanoic Acid], the Rate in the data set on Protease XXIII stood at 12 umols/hr/mg; in data set [4], 135 umols/hr/mg; in data set [5], 65 umols/hr/mg; in data set [6] it was 29 umols/hr/mg; with Protease XIV it was 105 umols/hr/mg. Also, the “Rate Ratio L/D” value in the data set on Protease XXIII (enzyme A, pH 7.6) came to 2.3; in data set [4] (enzyme B, pH 7.6), 2.1; in data set [5] (Example 6.2.3.4, pH 7.6), 1.1; in [6] (enzyme D, pH 7.6) it was 1.1; in the data set on Protease XIV (Example 6.2.3.2, pH 7.6) it was 1.7.
